Source: patent US20020037872A1, “N6 heterocyclic 5' modified adenosine derivatives” (CV Therapeutics, Inc., priority 1999, published 2002)
Like-named read-outs stand apart in the source and are kept apart here.

Columns and labels:
A1 adenosine receptor [1] = target: T1, A1 adenosine receptor (Mesocricetus auratus, UniProt A0A1U8BVR4); test: cAMP assay (SPA) in DDT1 cells, forskolin-induced cAMP; assay type: cell-based, hamster; details: normalized to full agonist CPA, 5 μM forskolin, 50 μM rolipram; for Emax: 10 min
T1 construct: endogenous in cells; host or cells: DDT1 (DDT1 MF-2) hamster vas deferens smooth muscle cells
T1 sequence (A0A1U8BVR4 1-326): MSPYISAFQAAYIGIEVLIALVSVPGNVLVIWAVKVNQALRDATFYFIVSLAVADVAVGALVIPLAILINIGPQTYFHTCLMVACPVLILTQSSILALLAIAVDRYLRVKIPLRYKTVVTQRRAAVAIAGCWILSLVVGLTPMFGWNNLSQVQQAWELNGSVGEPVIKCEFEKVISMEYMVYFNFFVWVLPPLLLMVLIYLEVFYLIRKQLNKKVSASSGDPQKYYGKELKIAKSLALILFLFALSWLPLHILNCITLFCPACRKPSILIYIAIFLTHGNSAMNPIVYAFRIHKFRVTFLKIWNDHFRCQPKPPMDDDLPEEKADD
Method: A scintillation proximity assay (SPA) using rabbit antibodies directed at cAMP using an added tracer of adenosine 3′,5′-cyclic phosphoric acid 2′-O-succinyl-3-[^125I]iodotyrosine methyl ester and fluoromicrospheres containing anti-rabbit specific antibodies as described by Amersham Pharmacia Biotech (Biotrak cellular communication assays). Briefly, DDT1 cells were cultured in clear bottomed 96 well microtiter plates with opaque wells at concentrations between 10^4 to 10^6 cells per well in 40 μl of HBSS at 37° C. (5% CO2 and 95% humidity). The partial or full A1 agonists (5 μl) of this invention were incubated at various concentrations with the DDT1 cells in the presence of rolipram (50 μM), and 5 μM forskolin for 10 min at 37° C. The cells were immediately lysed by treatment 5 μl of 10% dodecyltrirnethylammonium bromide followed by shaking using rnicroplate shaker. After incubation of the plate for 5 minutes, an imnuunoreagent solution (150 μl containing equal volumes of tracer, antiserum, and SPA fluorospheres) was added to each well followed by sealing the plate. After 15-20 h at 23° C., the amount of bound [^125] cAM to the fluoromicrospheres was determined by counting in a microtitre plate scintillation counter for 2 minutes. Comparison of counts with standard curves generated for cAMP using a similar protocol afforded the cAMP present after cell lysis.

A1 adenosine receptor [2] = target: T1, A1 adenosine receptor; test: [35S]GTPγS binding assay, A1-agonist stimulated; assay type: biochemical, hamster; details: agonist stimulated [35S]GTPγS binding, CPA = 100%
Method: (§1) Attached cells were washed twice with HBSS (2×10 ml), scraped free of the plate with the aid of a rubber policeman in 5 ml of 50 mM Tris-HCI buffer pH 7.4 at 4° C. and the suspension homogenized for 10 s. The suspension was then centrifuged at 27,000×g for 10 min. The pellet was resuspended in homogenization buffer by vortexing and centrifuged as described above. The final pellet was resuspended in 1 vol of 50 mM Tris-HCI buffer pH 7.4 containing 5 mM MgCl2 for A1 AdoR assays. For the [^35S]GTPγS binding assay the final pellet was resuspended in 50 mM Tris-HCI pH 7.4 containing 5 mM MgCl2, 100 mM NaCl and 1 mM dithiothreitol. This membrane suspension was then placed in liquid nitrogen for 10 min, thawed and used for assays. The protein content was determined by the method of Bradford (1976) using bovine serum albumin as standard.
A1-agonist stimulated [^35S]GTPγS binding was determined by a modification of the method described by Giersckik et al. (1991) and Lorenzen et al. (1993). […] Nonspecific binding was determined by the addition of 10 μM GTPγS. […] Previous reports have shown that agonist stimulated [^35S]GTPγS binding was dependent on the presence of GDP (Gierschik et al., 1991; Lorenzen et al., 1993; Traynor & Nahorski, 1995). […] In saturation experiments, 0.5 nM [^35S]GTPγS was incubated with 0.5-1000 nM GTPγS. At the end of the incubation, each suspension was filtered and the retained radioactivity determined as described above.

A1 receptor = target: T2, A1 receptor (Mesocricetus auratus, UniProt A0A1U8BVR4); test: Competitive binding assay, DDT1 cell membranes, [3H]CCPA; parameters: species or system hamster; details: [3H]CCPA 2 nM
T2 construct: endogenous in cells; host or cells: DDT1 (DDT1 MF-2) hamster vas deferens smooth muscle cells
T2 sequence (A0A1U8BVR4 1-326): T1 sequence (A0A1U8BVR4 1-326)
Method: Cells were subcultured twice weekly by dispersion in Hank's Balanced Salt Solution (HBSS) without the divalent cations and containing 1 mM EDTA. The cells were then seeded in growth medium at a density of 1.2×10^5 cells per plate and experiments were performed 4 days later at approximately one day preconfluence.
as §1, with “assays.” for “assays. The protein content was determined by the method of Bradford (1976) using bovine serum albumin as standard.”
Competitive Binding Assay Pig striatum were prepared by homogenation in 50 mM Tris buffer (5× volume of tissue mass pH=7.4). After centrifilgation at 19,000 rpm for 25 minutes at 4° C., the supernatant was discarded, and the process was repeated twice. Compositions of this invention were assayed to determine their affinity for the A1 receptor in a pig striatum membrane prep or a DDT, membrane prep. Briefly, 0.2 mg of pig striatal membranes or DDT, cell membranes were treated with adenosine deaminase and 50 mM Tris buffer (pH=7.4) followed by mixing. To the pig membranes was added 2 μL of serially diluted DMSO stock solution of the compounds of this invention at concentrations ranging from 100 microM to 10 nM. The control received 2 microL of DMSO alone, then the antagonist [^3H] 8-cyclopentylxanthine (CPX) for pig striatum or the agonist [^3H] 2-chloro-6-cyclopentyladenosine (CCPA) for DDT, membranes in Tris buffer (50 mnM, pH of 7.4) was added to achieve a final concentration of 2 nM. After incubation at 23 C for 2 h, the solutions were filtered using a membrane harvester using multiple washing of the membranes (3×). The filter disks were counted in scintillation cocktail affording the amount of displacement of triated CPX or by the competitive binding compositions of this invention. In the case of the DDT1 cell membranes, some of the determinations of binding affinity (Ki) were made in the presence of Gpp(NH)p as noted in Table 1 (note: Gpp(NH)p shifts the receptor to a low affinity form). Greater than a 5 point curve was used to generate Ki's and the number of experiments is indicated in the column marked in Table 1 below.

[3] = DDT1 cell membranes, read-out: Ki-DDT1 cell membrane
[4] = in presence of Gpp(NH)p (low affinity form), read-out: Ki - DDT1 cell membrane In presence of Gpp (NH)p

## CNC(=S)SCC1OC(n2cnc3c(NC4CCOC4)ncnc32)C(O)C1O [Compound 74, 2-{6[((3R)oxolan-3-yl)ainio]purin-9yl}(4S,5S,2R,3R)5-{[(methylamniio)thioxomethylthio]methyl}oxolane3,4diol]
A1 adenosine receptor [1]
  Emax: 82%
A1 adenosine receptor [2]
  Emax: 95%

## O=C(NC1CCCC1)OCC1OC(n2cnc3c(NC4CCOC4)nc(Cl)nc32)C(O)C1O [Compound 69, [(5-16-[((3R)oxolan-3-yl)amino]-2-chloropurin-9-yl}(3S,2R,4R,5R)-3,4-dihydroxyoxolan-2-yl)methoxy]-N-cyclopentylcarboxamide]
A1 receptor; [3]
  Ki: 380 nM
A1 adenosine receptor [1]
  Emax: 18%
A1 adenosine receptor [2]
  Emax: 50%

## O=C(NC1CCCC1C(=O)O)OCC1OC(n2cnc3c(N[C@@H]4CCOC4)ncnc32)C(O)C1O (stereo partly shown) [Compound 65]
A1 adenosine receptor [1]
  Emax: 95%
A1 adenosine receptor [2]
  Emax: 81%

## COC(=S)NCC1OC(n2cnc3c(N[C@@H]4CCOC4)ncnc32)C(O)C1O (stereo partly shown) [Compound 71]
A1 adenosine receptor [1]
  Emax: 94%
A1 adenosine receptor [2]
  Emax: 98%

## OC1C(COC(=S)NC2CC2)OC(n2cnc3c(N[C@@H]4CCOC4)ncnc32)C1O (stereo partly shown) [Compound 59]
A1 adenosine receptor [1]
  Emax: 115%
A1 adenosine receptor [2]
  Emax: 82%

## O=C(NCC1OC(n2cnc3c(N[C@@H]4CCOC4)ncnc32)C(O)C1O)OC1CCCC1 (stereo partly shown) [Compound 70]
A1 adenosine receptor [1]
  Emax: 79%
A1 adenosine receptor [2]
  Emax: 76%

## OC1CCCC1NC(=S)OCC1OC(n2cnc3c(N[C@@H]4CCOC4)ncnc32)C(O)C1O (stereo partly shown) [Compound 64]
A1 adenosine receptor [1]
  cAMP: 110%
A1 adenosine receptor [2]
  GTPγS: 99%

## O=C(NC1CC1c1ccccc1)OC[C@H]1O[C@@H](n2cnc3c(N[C@@H]4CCOC4)ncnc32)[C@H](O)[C@@H]1O (stereo partly drawn) [Compound 40, [(5-{6-[((3R)oxolan-3-yl)amino}purin-9-yl}(3S,2R,4R,5R)-3,4-dihydroxyoxolan-2-yl)methoxy]-N-(2-phenylcyclopropyl)carboxamide]
A1 adenosine receptor [1]
  Emax: -14%
A1 adenosine receptor [2]
  Emax: -6%

## OC1C(COC(=S)NC2CCCC2OCc2ccccc2)OC(n2cnc3c(N[C@@H]4CCOC4)ncnc32)C1O (stereo partly shown) [Compound 57]
A1 adenosine receptor [1]
  cAMP: 73%
A1 adenosine receptor [2]
  Emax: 67%

## OC1C(CNC(=S)OC2CCCC2)OC(n2cnc3c(N[C@@H]4CCOC4)ncnc32)C1O (stereo partly drawn) [Compound 72, 2-{6-[((3R)oxolan-3-yl)amino]purin-9-yll(4S,2R,3R,5R)5-{[cyclopentyloxythioxomethyl)amino]methyl}oxolane3,4-diol]
A1 adenosine receptor [1]
  Emax: 103%
A1 adenosine receptor [2]
  Emax: 93%

## CN(C)C(=S)OC[C@H]1O[C@@H](n2cnc3c(N[C@@H]4CCOC4)ncnc32)[C@H](O)[C@@H]1O [Compound 53, 2-{6-[((3R)oxolan-3-yl)amino]purin-9-yl}(4S,2R,3R,5R)-5-{[(dimethylamino)thioxomethoxy]methyl}oxolane-3,4-diol]
A1 receptor; [3]
  Ki: 245 nM
A1 receptor; [4]
  Ki: 2110 nM
A1 adenosine receptor [2]
  Emax: 85%

## O=C(NC1CCCC1)SCC1OC(n2cnc3c(NC4CCOC4)ncnc32)C(O)C1O [Compound 73, [(5-{6-[((3R)oxolan-3-yl)amino]purin-9-yl}(2S,3S,4R,5R)3,4-dihydroxyoxolan-2-yl)methythio]-N-cyclopentylcarboxamide]
A1 receptor; [3]
  Ki: 183 nM
A1 adenosine receptor [2]
  Emax: 109%

## CCNC(=S)OC[C@H]1O[C@@H](n2cnc3c(N[C@@H]4CCOC4)ncnc32)[C@H](O)[C@@H]1O [Compound 46, 2-{6[((3R)oxolan-3-yl)amino]purin-9-yl}(4S,2R,3R,5R)-5-{[(ethylamino)thioxomethoxy]methyl}oxolane3,4diol]
A1 receptor; [4]
  Ki: 135 nM
A1 adenosine receptor [2]
  Emax: 77%

## CC(C)NC(=S)OC[C@H]1O[C@@H](n2cnc3c(N[C@@H]4CCOC4)ncnc32)[C@H](O)[C@@H]1O [Compound 47, 2-{6-[((3R)oxolan-3-yl)amino]purin-9-yl}(4S,2R,3R,5R)-5({[(methylethyl)amino]thioxomethoxy}methyl)oxolane3,4-diol]
A1 receptor; [4]
  Ki: 109 nM
A1 adenosine receptor [2]
  Emax: 84%

## CNC(=O)OC[C@H]1O[C@@H](n2cnc3c(N[C@@H]4CCOC4)nc(Cl)nc32)[C@H](O)[C@@H]1O [Compound 13, [(5-{6-[((3R)oxolan-3-yl)amino]-2-chloropurin-9-yl}(3S,2R,4R,5R)3,4dihydroxyoxolan-2-yl)methoxy]-N-methylcarboxamide]
A1 receptor; [3]
  Ki: 129 nM
A1 adenosine receptor [2]
  Emax: 77%

## OC1CCCC1NC(=S)OCC1OC(n2cnc3c(N[C@@H]4CCOC4)ncnc32)C(O)C1O (stereo partly shown) [Compound 63]
A1 adenosine receptor [1]
  Emax: 115%
A1 adenosine receptor [2]
  Emax: 100%

## COC(=O)NCC1OC(n2cnc3c(N[C@@H]4CCOC4)ncnc32)C(O)C1O (stereo partly shown) [Compound 18]
A1 adenosine receptor [1]
  Emax: 86%
A1 adenosine receptor [2]
  Emax: 77%

## OC1C(COC(=S)NC2CCC2)OC(n2cnc3c(N[C@@H]4CCOC4)ncnc32)C1O (stereo partly drawn) [Compound 58, 2-{1[((3)oxolan-3-yl)amino]purin-9-yl}(4S,2R,3R,5R)-5-{[(cyclobutylamino)thioxomethoxy]methyl}oxolane-3,4-diol]
A1 adenosine receptor [1]
  Emax: 78%
A1 adenosine receptor [2]
  Emax: 79%

## O=c1occn1CC1OC(n2cnc3c(N[C@@H]4CCOC4)ncnc32)C(O)C1O (stereo partly shown) [Compound 80]
A1 adenosine receptor [1]
  Emax: 64%
A1 adenosine receptor [2]
  Emax: 80%

## O=C(NC1CCCC1OCc1ccccc1)OCC1OC(n2cnc3c(N[C@@H]4CCOC4)ncnc32)C(O)C1O (stereo partly shown) [Compound 38]
A1 adenosine receptor [1]
  cAMP: −25%
A1 adenosine receptor [2]
  GTPγS: 1%

## CCCCNC(=S)OCC1OC(n2cnc3c(N[C@@H]4CCOC4)ncnc32)C(O)C1O (stereo partly shown) [Compound 48]
A1 receptor; [4]
  Ki: 926 nM
A1 adenosine receptor [2]
  Emax: 70%

## O[C@@H]1[C@H](O)[C@@H](COC(=S)N2CCCC2)O[C@H]1n1cnc2c(N[C@@H]3CCOC3)ncnc21 [Compound 52]
A1 receptor; [4]
  Ki: 1120 nM
A1 adenosine receptor [2]
  GTPγS: 77%
